Source: patent US10378041B2, “Effervescent compositions and uses thereof” (3M INNOVATIVE PROPERTIES COMPANY, priority 2010, dated 2019)

Test system: Pseudomonas putida (ATCC 31483)
Assay: Bacterial growth in growth medium containing ceftazidime hydrate (96-well plate, turbidity)
Type: cell-based
Set-up: key to bacterial growth (turbidity): “+” indicates growth; “−” indicates no growth
Conditions: overnight at 37° C.
Experimental: Samples of growth media were prepared by dissolving a tablet of each composition in 1 liter of recovery media (modified Listeria Recovery Broth (MLRB), available from 3M Company; St. Paul, Minn.). The tablets dissolved within 4.5 minutes. A sample of growth media was prepared as a control by dissolving 10 mg of Ceftazidime hydrate powder (product number C3809-5G available from Sigma Aldrich; St. Louis, Mo.) in 1 liter of MLRB.
A bacterial suspension was prepared by inoculating a pure culture of Pseudomonas putida (ATCC 31483 obtained from ATCC, Manassas, Va.) into tryptic soy broth (BD™ Tryptic Soy Broth; Becton Dickinson; Sparks, Md.) and incubating at 37° C. The suspension was diluted 1:1,000 in SMB (Standard Methods Buffer; 3M Company; St. Paul, Minn.). The diluted suspension was further diluted 1:10,000-diluted in SMB growth medium containing ceftazidime concentrations shown in Table 10. Four duplicates of each sample were pipetted into a 96-well plate as follows: Growth Control with no Ceftazidime hydrate; an Undiluted Control with 10 micrograms Ceftazidime hydrate/microliter of the bacterial suspension; and each dilution of inoculated medium containing the concentration of ceftazidime hydrate shown in the Table 10. The 96-well plate was incubated overnight at 37° C. and examined visually for bacterial growth. Turbidity in the well indicated growth.

SMILES: CC(C)(O/N=C(\C(=O)N[C@@H]1C(=O)N2C(C(=O)[O-])=C(C[n+]3ccccc3)CS[C@H]12)c1csc(N)n1)C(=O)O [Powder Control, Ceftazidime hydrate]
- bacterial growth (turbidity) (2.5 mcg CDH/microliter): +
- bacterial growth (turbidity) (3.75 mcg CDH/microliter): +
- bacterial growth (turbidity) (5.0 mcg CDH/microliter): −
- bacterial growth (turbidity) (6.25 mcg CDH/microliter): −
- bacterial growth (turbidity) (7.5 mcg CDH/microliter): −
- bacterial growth (turbidity) (8.75 mcg CDH/microliter): −
- bacterial growth (turbidity) (Undiluted Control - 10 mcg CDH/microliter): −
- lowest concentration of ceftazidime hydrate showing no growth (delivered in tablet or powder): 5 mcg/microliter of sample
